Reference: the CheMixHub ionic liquid set

Test: xn = mol fraction of the nth substance listed

CCCCn1cc[n+](C)c1C.O=S(=O)([N-]S(=O)(=O)C(F)(F)F)C(F)(F)F + COC(=O)OC
viscosity [mPa·s], 101.3 kPa
Details | 288.15 K | 293.15 K | 298.15 K | 303.15 K | 308.15 K | 313.15 K
x1 = 0.003134 | 0.698 | 0.653 | 0.611 | 0.575 | 0.541 | 0.511
x1 = 0.003617 | 0.704 | 0.658 | 0.615 | 0.579 | 0.544 | 0.513
x1 = 0.004671 | 0.717 | 0.669 | 0.626 | 0.588 | 0.553 | 0.522
x1 = 0.005144 | 0.722 | 0.674 | 0.63 | 0.592 | 0.557 | 0.525
x1 = 0.007528 | 0.753 | 0.701 | 0.655 | 0.614 | 0.578 | 0.544
x1 = 0.008467 | 0.763 | 0.711 | 0.664 | 0.622 | 0.585 | 0.551
x1 = 0.01016 | 0.786 | 0.731 | 0.682 | 0.639 | 0.6 | 0.564
x1 = 0.01046 | 0.789 | 0.734 | 0.685 | 0.641 | 0.602 | 0.566
x1 = 0.01168 | 0.805 | 0.748 | 0.697 | 0.653 | 0.612 | 0.577
x1 = 0.01411 | 0.833 | 0.773 | 0.721 | 0.674 | 0.632 | 0.597
x1 = 0.01541 | 0.85 | 0.788 | 0.734 | 0.685 | 0.643 | 0.604
x1 = 0.01579 | 0.854 | 0.791 | 0.738 | 0.688 | 0.645 | 0.606
x1 = 0.01626 | 0.86 | 0.798 | 0.743 | 0.693 | 0.651 | 0.61
x1 = 0.01704 | 0.87 | 0.807 | 0.751 | 0.7 | 0.657 | 0.616
x1 = 0.01948 | 0.898 | 0.832 | 0.773 | 0.722 | 0.675 | 0.634
x1 = 0.01969 | 0.901 | 0.834 | 0.775 | 0.723 | 0.677 | 0.635
x1 = 0.02378 | 0.947 | 0.876 | 0.813 | 0.758 | 0.709 | 0.665
x1 = 0.02412 | 0.949 | 0.878 | 0.816 | 0.76 | 0.711 | 0.667
x1 = 0.02675 | 0.977 | 0.903 | 0.838 | 0.781 | 0.731 | 0.684
x1 = 0.02717 | 0.98 | 0.907 | 0.842 | 0.784 | 0.734 | 0.688
x1 = 0.03309 | 1.044 | 0.964 | 0.894 | 0.833 | 0.778 | 0.729
x1 = 0.03594 | 1.073 | 0.99 | 0.918 | 0.855 | 0.798 | 0.748
x1 = 0.03715 | 1.086 | 1.002 | 0.929 | 0.864 | 0.807 | 0.756
x1 = 0.0405 | 1.117 | 1.031 | 0.957 | 0.89 | 0.83 | 0.777
x1 = 0.04889 | 1.211 | 1.117 | 1.034 | 0.96 | 0.895 | 0.837

O=S(=O)([N-]S(=O)(=O)C(F)(F)F)C(F)(F)F.[Li+] + COC(=O)OC
298.1 K, 100 kPa, x1 = 0.333
Details | electrical conductivity [S/m] | viscosity [mPa·s]
– | 0.12 | 53.7

O=S(=O)([N-]S(=O)(=O)C(F)(F)F)C(F)(F)F.[Li+] + COC(=O)OC + CCC1COC(=O)O1
Details | viscosity [mPa·s]
298.15 K, 100 kPa, x1 = 0.333, x2 = 0.667 | 53.7

O=S(=O)([N-]S(=O)(=O)C(F)(F)F)C(F)(F)F.[Li+] + COC(=O)OC + CCC(=O)OC
Details | viscosity [mPa·s]
298.15 K, 100 kPa, x1 = 0.333, x2 = 0.667 | 53.7

CCCCCCCCCCCCCC[P+](CCCCCC)(CCCCCC)CCCCCC.O=[N+]([O-])c1c[n-]cn1 + COCCOCCOCCOCCOC
viscosity [mPa·s], 100 kPa
Details | 278.15 K | 283.15 K | 303.15 K
x2 = 0.189 | 1503 | 1036 | –
x2 = 0.404 | – | – | 107

O=S(=O)([N-]S(=O)(=O)C(F)(F)F)C(F)(F)F.[Li+] + COCCOCCOCCOCCOC
Details | electrical conductivity [S/m]
293 K, 100 kPa, frequency 0.05 MHz, x1 = 0.143 | 0.235

CC(=O)[O-].CC[NH+](CC)CC + CS(C)=O
viscosity [mPa·s], 101 kPa
Details | 298.15 K | 303.15 K | 308.15 K
x2 = 0 | 24.12 | 19.64 | 16.13
x2 = 0.0534 | 22.91 | 18.67 | 15.35
x2 = 0.0936 | 22.01 | 17.94 | 14.76
x2 = 0.1496 | 20.75 | 16.93 | 13.94
x2 = 0.1837 | 19.99 | 16.31 | 13.44
x2 = 0.2154 | 19.28 | 15.74 | 12.98
x2 = 0.2836 | 17.76 | 14.51 | 11.98
x2 = 0.3204 | 16.94 | 13.85 | 11.44
x2 = 0.3837 | 15.53 | 12.71 | 10.51
x2 = 0.4536 | 13.97 | 11.45 | 9.49
x2 = 0.5169 | 12.56 | 10.31 | 8.56
x2 = 0.5647 | 11.49 | 9.45 | 7.86
x2 = 0.6447 | 9.71 | 8.01 | 6.69
x2 = 0.7301 | 7.81 | 6.48 | 5.45
x2 = 0.7884 | 6.52 | 5.44 | 4.61
x2 = 0.839 | 5.41 | 4.55 | 3.89
x2 = 0.8848 | 4.42 | 3.76 | 3.24
x2 = 0.9121 | 3.84 | 3.29 | 2.86
x2 = 0.9393 | 3.26 | 2.82 | 2.48
x2 = 0.9649 | 2.72 | 2.39 | 2.13
x2 = 0.9764 | 2.48 | 2.2 | 1.98
